Test results as given in patent US10035790B2, “RORγ modulators” (BRISTOL-MYERS SQUIBB COMPANY, priority 2012, dated 2018).

Target: T1, ligand binding domain of human RORγ (A262-S507) (Homo sapiens, UniProt P51449)
T1 construct: made in house; host or cells: E. coli
T1 sequence (P51449 262-507): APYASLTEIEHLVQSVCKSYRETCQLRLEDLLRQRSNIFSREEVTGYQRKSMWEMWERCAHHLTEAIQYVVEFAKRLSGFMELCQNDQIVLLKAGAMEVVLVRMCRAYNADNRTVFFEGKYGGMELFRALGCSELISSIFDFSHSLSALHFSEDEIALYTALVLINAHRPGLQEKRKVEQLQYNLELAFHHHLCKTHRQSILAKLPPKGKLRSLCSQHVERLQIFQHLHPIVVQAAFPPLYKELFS
Experiment: General RORγ SPA binding assay (competition with [3H]25-hydroxycholesterol)
Details: IC50, RORγ SPA binding assay, inhibition of [3H]25-hydroxycholesterol binding
Outline: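 Scintillation counts from copper His-tag SPA beads (4 mg/mL, 30 min) gave percent inhibition of radioligand binding, from which IC50 values are derived. The E. coli-expressed His-tagged domain (50 nM) is first exposed to compound for 15 min at room temperature in PBS containing 0.5% fatty acid free BSA.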

| SMILES | IC50 [nM] |
| --- | --- |
| CC(O)(COc1ccnc(C(F)(F)F)n1)c1cnc(N)nc1C1CCN(C(=O)Oc2ccc(F)cc2)CC1 (stereo not shown) [Compound D50, 4-Fluorophenyl 4-[2-amino-5-(1-hydroxy-1-methyl-2-{[2-(trifluoromethyl)pyrimidin-4-yl]oxy}ethyl)pyrimidin-4-yl]piperidine-1-carboxylate] | 15 |

Same assay, conditions: RORγ SPA binding assay, inhibition of [3H]25-hydroxycholesterol binding; read-out: IC50

| SMILES | IC50 [nM] |
| --- | --- |
| Cc1ncc(C(=O)NC(C)c2cccc(Cl)c2)c(C2CCN(C(=O)Cc3c(F)cccc3F)CC2)n1 (stereo not shown) [Compound A76, N-(1-(3-chlorophenyl)ethyl)-4-(1-(2-(2,6-difluorophenyl)acetyl)piperidin-4-yl)-2-methylpyrimidine-5-carboxamide] | 1120 |
| Cc1ncc(C(=O)NCc2ccc(Cl)cc2C)c(C2CCN(C(=O)Cc3c(F)cccc3F)CC2)n1 [Compound A59, N-(4-chloro-2-methylbenzyl)-4-(1-(2-(2,6-difluorophenyl)acetyl)piperidin-4-yl)-2-methylpyrimidine-5-carboxamide] | 25.5 |
| Cc1cc(C)cc(C/C=C\c2cnc(C)nc2C2CCN(C(=O)Cc3c(F)cccc3F)CC2)c1 [Compound J2, (Z)-2-(2,6-Difluorophenyl)-1-(4-(5-(3-(3,5-dimethylphenyl)prop-1-enyl)-2-methylpyrimidin-4-yl)piperidin-1-yl)ethanone] | 28 |
| Cc1ncc(C(C)(O)COc2cccc(C(F)(F)F)n2)c(C2CCN(C(=O)Nc3c(F)cccc3F)CC2)n1 (stereo not shown) [Compound D25, N-(2,6-difluorophenyl)-4-[5-(1-hydroxy-1-methyl-2-{[6-(trifluoromethyl)pyridin-2-yl]oxy}ethyl)-2-methylpyrimidin-4-yl]piperidine-1-carboxamide] | 8.7 |
| COc1nc(C)c(C(O)COc2ccnc(C(F)(F)F)n2)c(C2CCN(C(=O)Nc3c(F)cccc3F)CC2)n1 (stereo not shown) [Compound N8, N-(2,6-Difluorophenyl)-4-[5-(1-hydroxy-2-{[2-(trifluoromethyl)pyrimidin-4-yl]oxy}ethyl)-6-methyl-2-(methyloxy)pyrimidin-4-yl]piperidine-1-carboxamide] | 4.8 |
| C/C(=N\Oc1cc(C)ccc1C)c1cnc(C)nc1C1CCN(C(=O)Cc2c(F)cccc2F)CC1 [Compound B18, (E)-2-(2,6-difluorophenyl)-1-(4-(5-(1-((2,5-dimethylphenoxy)imino)ethyl)-2-methylpyrimidin-4-yl)piperidin-1-yl)ethanone] | 11.2 |
| Cc1ncc(C(C)(O)COc2cccc(Cl)c2)c(C2CCN(C(=O)Cc3c(F)cccc3F)CC2)n1 (stereo not shown) [Compound D12, 1-(4-(5-(1-(3-chlorophenoxy)-2-hydroxypropan-2-yl)-2-methylpyrimidin-4-yl)piperidin-1-yl)-2-(2,6-difluorophenyl)ethanone] | 6.2 |
| Cc1nc(C)c(-c2nnc(-c3ccnc(C(F)(F)F)n3)o2)c(C2CCN(C(=O)Nc3ccccc3Cl)CC2)n1 [Compound C29, N-(2-chlorophenyl)-4-(2,6-dimethyl-5-{5-[2-(trifluoromethyl)pyrimidin-4-yl]-1,3,4-oxadiazol-2-yl}pyrimidin-4-yl)piperidine-1-carboxamide] | 158 |
| Cc1ncc(C(C)(O)CNc2cc(C(F)(F)F)ccn2)c(C2CCN(C(=O)Cc3c(F)cccc3F)CC2)n1 (stereo not shown) [Compound D8, 2-(2,6-difluorophenyl)-1-(4-(5-(2-hydroxy-1-((4-(trifluoromethyl)pyridin-2-yl)amino)propan-2-yl)-2-methylpyrimidin-4-yl)piperidin-1-yl)ethanone] | 105 |
| Cc1cc(C)cc(CNC(=O)c2cnc(C)nc2C2CCN(C(=O)Cc3cccc4ccccc34)CC2)c1 [Compound A19, N-(3,5-dimethylbenzyl)-2-methyl-4-(1-(2-(naphthalen-1-yl)acetyl)piperidin-4-yl)pyrimidine-5-carboxamide] | 155 |
| Cc1cc(C)cc(CNC(=O)c2cnc(C)nc2C2CCN(C(=O)Nc3ccccc3F)CC2)c1 [Compound A106, N-(3,5-Dimethylbenzyl)-4-(1-((2-fluorophenyl)carbamoyl)piperidin-4-yl)-2-methylpyrimidine-5-carboxamide] | 270 |
| COc1ccc(CNc2ncc(C(C)(O)COc3ccnc(C(F)(F)F)n3)c(C3CCN(C(=O)Nc4c(F)cccc4F)CC3)n2)c(OC)c1 (stereo not shown) [Compound D37, 4-[2-({[2,4-Bis(methyloxy)phenyl]methyl}amino)-5-(1-hydroxy-1-methyl-2-{[2-(trifluoromethyl)pyrimidin-4-yl]oxy}ethyl)pyrimidin-4-yl]-N-(2,6-difluorophenyl)piperidine-1-carboxamide] | 112 |
| Cc1cc(C)cc(CNC(=O)c2cnc(C)nc2C2CCN(C(=O)Cc3ccccc3F)CC2)c1 [Compound A12, N-(3,5-dimethylbenzyl)-4-(1-(2-(2-fluorophenyl)acetyl)piperidin-4-yl)-2-methylpyrimidine-5-carboxamide] | 50 |
| Cc1cc(C)cc(NCC(C)(O)c2cnc(C)nc2C2CCN(C(=O)Cc3c(F)cccc3F)CC2)c1 (stereo not shown) [Compound D3, 2-(2,6-difluorophenyl)-1-(4-(5-(1-((3,5-dimethylphenyl)amino)-2-hydroxypropan-2-yl)-2-methylpyrimidin-4-yl)piperidin-1-yl)ethanone] | 5 |
| Cc1ncc(C(=NOc2cccc(F)c2)C(F)(F)F)c(C2CCN(C(=O)Cc3c(F)cccc3F)CC2)n1 (mixture of isomers) [Compound B29, (Z)-2-(2,6-Difluorophenyl)-1-(4-(2-methyl-5-(2,2,2-trifluoro-1-(3-fluorophenoxyimino)ethyl)pyrimidin-4-yl)piperidin-1-yl)ethanone] | 3720 |
| Cc1cc(C)cc(CNC(=O)c2cnc(C)nc2C2(F)CCN(C(=O)Cc3c(F)cccc3F)CC2)c1 [Compound A105, 4-(1-(2-(2,6-difluorophenyl)acetyl)-4-fluoropiperidin-4-yl)-N-(3,5-dimethylbenzyl)-2-methylpyrimidine-5-carboxamide] | 551 |
| Cc1cc(C)cc(CNC(=O)c2cnc(C)nc2C2CCN(C(=O)[C@H](C)c3ccccc3)CC2)c1 [Compound A16, (R)-N-(3,5-dimethylbenzyl)-2-methyl-4-(1-(2-phenylpropanoyl)piperidin-4-yl)pyrimidine-5-carboxamide] | 89 |
| CNc1nc(C)nc(C2CCN(C(=O)Cc3c(F)cccc3F)CC2)c1C(=O)NCc1cc(C)cc(C)c1 [Compound A108, 4-(1-(2-(2,6-Difluorophenyl)acetyl)piperidin-4-yl)-N-(3,5-dimethylbenzyl)-2-methyl-6-(methylamino)pyrimidine-5-carboxamide] | 21.7 |
| Cc1cc(C)cc(CNC(=O)c2cnc(C)nc2C2CCN(C(=O)Nc3c(F)cccc3F)CC2)c1 [Compound A107, 4-(1-((2,6-Difluorophenyl)carbamoyl)piperidin-4-yl)-N-(3,5-dimethylbenzyl)-2-methylpyrimidine-5-carboxamide] | 12.1 |
| Cc1nc(N)nc(C2CCN(C(=O)Nc3c(F)cccc3F)CC2)c1-c1nnc(-c2ccnc(C(F)(F)F)n2)o1 [Compound C48, 4-(2-Amino-6-methyl-5-{5-[2-(trifluoromethyl)pyrimidin-4-yl]-1,3,4-oxadiazol-2-yl}pyrimidin-4-yl)-N-(2,6-difluorophenyl)piperidine-1-carboxamide] | 63.9 |
| C/C(=N/Oc1cccc(Cl)c1)c1cnc(C)nc1C1CCN(C(=O)Cc2c(F)cccc2F)CC1 [Compound B6, (Z)-1-(4-(5-(1-((3-chlorophenoxy)imino)ethyl)-2-methylpyrimidin-4-yl)piperidin-1-yl)-2-(2,6-difluorophenyl)ethanone] | 1930 |
| Cc1nc(C2CCN(C(=O)Cc3c(F)cccc3F)CC2)c(C(=O)NCc2cccc(Cl)c2)c(=O)[nH]1 [Compound I4, N-(3-chlorobenzyl)-4-(1-(2-(2,6-difluorophenyl)acetyl)piperidin-4-yl)-2-methyl-6-oxo-1,6-dihydropyrimidine-5-carboxamide] | 10.9 |
| CC(=O)NCC(O)(COc1cccc(C(F)(F)F)n1)c1cnc(C)nc1C1CCN(C(=O)Oc2ccccc2F)CC1 (stereo not shown) [Compound N43, 2-Fluorophenyl 4-{5-[2-(acetylamino)-1-hydroxy-1-({[6-(trifluoromethyl)pyridin-2-yl]oxy}methyl)ethyl]-2-methylpyrimidin-4-yl}piperidine-1-carboxylate] | 9.2 |
| CN(C)c1ncc(C(=O)NCc2cccc(Cl)c2)c(C2CCN(C(=O)Cc3c(F)cccc3F)CC2)n1 [Compound A88, N-(3-chlorobenzl)-4-(1-(2-(2,6-difluorophenyl)acetyl)piperidin-4-yl)-2-(dimethylamino)pyrimidine-5-carboxamide] | 5.4 |
| CNc1ncc(C(C)(O)COc2ccnc(C(F)(F)F)n2)c(C2CCN(C(=O)Nc3c(F)cccc3F)CC2)n1 (stereo not shown) [Compound D36, N-(2,6-Difluorophenyl)-4-[5-(1-hydroxy-1-methyl-2-{[2-(trifluoromethyl)pyrimidin-4-yl]oxy}ethyl)-2-(methylamino)pyrimidin-4-yl]piperidine-1-carboxamide] | 15.8 |
| Cc1cc(C)cc(CNC(c2cnc(C)nc2C2CCN(C(=O)Cc3c(F)cccc3F)CC2)C(F)(F)F)c1 (stereo not shown) [Compound F7, 2-(2,6-Difluorophenyl)-1-(4-(5-(1-(3,5-dimethylbenzylamino)-2,2,2-trifluoroethyl)-2-methylpyrimidin-4-yl)piperidin-1-yl)ethanone] | 9.8 |
| Cc1ncc(C(=O)NCc2cc(Cl)cc(Cl)c2)c(C2CCN(C(=O)Cc3c(F)cccc3F)CC2)n1 [Compound A51, N-(3,5-dichlorobenzyl)-4-(1-(2-(2,6-difluorophonyl)acetyl)piperidin-4-yl)-2-methylpyrimidine-5-carboxamide] | 7.2 |
